Assay results: patent EP1534672B1, “RETINOL DERIVATIVES, THEIR USE IN THE TREATMENT OF CANCER AND FOR POTENTIATING THE EFFICACY OF OTHER CYTOTOXIC AGENTS” (priority 2002, dated 2004)
Read-outs that look alike come from different tables or passages of the source.

What was measured:
[1] = rat, in vivo, ip; for mortality: 100 mg/kg
Description: A single dose i.p. toxicity study in rats was carried out. […] The minimal lethal dose is thus above 100 mg/kg body weight for these compounds.

[2] = test system: Human Breast Adenocarcinoma Cell Line MDA-MB-231; experiment: Drug cytotoxicity testing (viable cell count, trypan blue exclusion, cell growth inhibition); format: cell-based; conditions: for inhibition at 0.1 µM / inhibition at 0.01 µM / inhibition at 0.001 µM: Homo sapiens; for cell growth inhibition in (A) compared to compound in B / cell growth inhibition reached on increase of the concentration, in (B): sodium salt, range 10^-9 to 10^-7 M; for cell growth inhibition reached on increase of the concentration, in (B): dilution in normal saline (B)
Description: MDA-MB-231 cells were propagated in MEM culture medium with 2 mM L-glutamine, 10% heat-inactivated fetal bovine serum (FBS) and antibiotics. DU 145 cells were cultured in MEM culture medium containing 2 mM L-glutamine, 1 mM sodium pyruvate, 10% FBS and antibiotics. SKOV-3 cells were cultured in McCoy's 5A culture medium, supplemented with 1,5 mM L-glutamine, 10% FBS and antibiotics. A549 cells were cultured in Ham's F-12 culture medium with 1 mM L-glutamine, 10% FBS and antibiotics. All media and supplements were purchased from Sigma-Aldrich (St.Louis, MO, USA). Cell propagation of all lines was carried out in Falcon™ 25 cm^2 cultivation flasks (Becton Dickinson Labware).
Drug cytotoxicity testing was carried out with using Falcon™ 96-well cultivation plates for adherent cells (Becton Dickinson Labware). These plates were seeded by cells either at 12 × 10^3 MDA-MB-231 cells/well, or at 12 × 10^3 DU 145 cells/well, or at 14 × 10^3 SKOV-3 cells/well, or at 10 × 10^3 A549 cells/well in a volume of 200 µL/well.
The cell cultures in cultivation plates were allowed to adhere for 24 hour of incubation. On day 1 after cell seeding, 2 µL solutions of the drugs to be tested in medium with 5% FBS was added to the cultures. In the control cultures, 2 µL of medium with 5% FBS was added as solvent control. The cells were incubated for 2 consecutive days. At the end of the incubation period adherent cells were detached by trypsinization and the number of viable cells was counted using trypan blue exclusion test and a hemocytometer. All data were derived from an average of three determinations each in six replicates. The results were expressed as mean cell number ± SE and the differences between control and test series evaluated by means of Student's t-test. The drug cytotoxicity was evaluated based on the extent of cell growth inhibition. The cell growth inhibition of the tested drugs was calculated as follows: Cell growth inhibition,% = (Control-TestSeries)/(Control) × 100 [formula]
In the case of comparative evaluation of cytotoxicity of the inventive compounds themselves and the formulation related to consecutive dilutions of their initial solutions before adding to the cultures, 2 µL solutions of the drugs to be tested in medium with 5% FBS, in normal saline and in saline with 2,3 mM CaCl2 were added to the cultures. In control cultures, 2 µL of medium with 5% FBS, normal saline and saline with 2,3 mM CaCl2 were added as solvent controls (negative controls). […] Therefore an average of negative controls was calculated. […] Therefore an average of positive controls was calculated (for each antibiotic).

[3] = MDA-MB-231, 48 h, compound alone, final concentration 10^-7 mol/L, working solutions in MEM with 5% FBS, two days, read-out: cell growth inhibition
[4] = MDA-MB-231, 48 h, compound alone, final concentration 10^-8 mol/L, working solutions in MEM with 5% FBS, two days, read-out: cell growth inhibition
[5] = MDA-MB-231, 48 h, compound alone, final concentration 10^-9 mol/L, working solutions in MEM with 5% FBS, two days, read-out: cell growth inhibition
[6] = MDA-MB-231, compound alone 10^-7 mol/L, in A (saline with […] CaCl2), read-out: cell growth inhibition
[7] = MDA-MB-231, compound alone 10^-7 mol/L, in B (normal saline), read-out: cell growth inhibition
[8] = MDA-MB-231, compound alone 10^-7 mol/L, read-out: Cell growth inhibition in A compared to that in B was increased by
[9] = MDA-MB-231, compound alone 10^-8 mol/L, in A (saline with […] CaCl2), read-out: cell growth inhibition
[10] = MDA-MB-231, compound alone 10^-8 mol/L, in B (normal saline), read-out: cell growth inhibition
[11] = MDA-MB-231, compound alone 10^-8 mol/L, read-out: Cell growth inhibition in A compared to that in B was increased by
[12] = MDA-MB-231, compound alone 10^-9 mol/L, in A (saline with […] CaCl2), read-out: cell growth inhibition
[13] = MDA-MB-231, compound alone 10^-9 mol/L, in B (normal saline), read-out: cell growth inhibition
[14] = MDA-MB-231, compound alone 10^-9 mol/L, read-out: Cell growth inhibition in A compared to that in B was increased by
[15] = compound alone 10^-7 mol/L, in B (normal saline)
[16] = compound alone 10^-8 mol/L, in B (normal saline)
[17] = compound alone 10^-9 mol/L, in B (normal saline)
[18] = compound alone, final concentration 10^-7 mol/L, working solutions in MEM with 5% FBS, two days
[19] = compound alone, final concentration 10^-8 mol/L, working solutions in MEM with 5% FBS, two days
[20] = compound alone, final concentration 10^-9 mol/L, working solutions in MEM with 5% FBS, two days

Structure (SMILES)	minimal lethal dose [1]	mortality [1]	inhibition at 0.1 µM [2, 3] [%]	inhibition at 0.01 µM [2, 4] [%]	inhibition at 0.001 µM [2, 5] [%]	inhibition at 0.1 µM [2, 7] [%]	inhibition at 0.1 µM [2, 8] [%]	inhibition at 0.01 µM [2, 9] [%]	inhibition at 0.01 µM [2, 10] [%]	inhibition at 0.01 µM [2, 11] [%]	inhibition at 0.001 µM [2, 12] [%]	inhibition at 0.001 µM [2, 13] [%]	inhibition at 0.001 µM [2, 14] [%]	number of viable cells [2, 15]	number of viable cells [2, 16]	number of viable cells [2, 17]	number of viable cells [2, 18]	number of viable cells [2, 19]	number of viable cells [2, 20]	cell growth inhibition in (A) compared to compound in B [2] [%]	also measured
CC1=C(/C=C/C(C)=C/C=C/C(C)=C/C(=O)N[C@@H](CS(=O)(=O)O)C(=O)N(C)C)C(C)(C)CCC1 [compound I-1h, N-(all-trans-retinoyl)-L-cysteic acid dimethylamide]	above 100 mg/kg body weight	did not produce mortality	46.4	39.6	32	26	21.3	34.2	17.4	20.4	26.7	7	21.1	41.3 ± 0.99 × 10^3	46.1 ± 2.65 × 10^3	51.9 ± 3.46 × 10^3	30.3 ± 1.55 × 10^3	34.1 ± 1.89 × 10^3	38.4 ± 2.11 × 10^3	~21	inhibition at 0.1 µM [2, 6]: 41.8%
COC(=O)[C@H](CCS(=O)(=O)O)NC(=O)/C=C(C)/C=C/C=C(C)/C=C/C1=C(C)CCCC1(C)C [compound I-3a, N-(all-trans-retinoyl)-L-homocysteic acid methyl ester]	above 100 mg/kg body weight	did not produce mortality	49	38.2	29.2												28.8 ± 1.15 × 10^3	34.9 ± 1.64 × 10^3			
CC1=C(/C=C/C(C)=C/C=C/C(C)=C/C(=O)N[C@@H](CCS(=O)(=O)O)C(N)=O)C(C)(C)CCC1 [compound I-3f, N-(all-trans-retinoyl)-L-homocysteic acid amide]	above 100 mg/kg body weight	did not produce mortality	55.2	48.7	41.4	40.8	21.6	46.8	32.1	21.5	39	21.8	21.9	32.8 ± 0.99 × 10^3	37.6 ± 1.52 × 10^3	43.3 ± 2.88 × 10^3	25.3 ± 0.76 × 10^3	29.0 ± 1.32 × 10^3	33.1 ± 1.90 × 10^3	~22	inhibition at 0.1 µM [2, 6]: 53.6%; cell growth inhibition reached on increase of the concentration, in (B) [2]: ~41%
CC1=C(/C=C/C(C)=C/C=C/C(C)=C\C(=O)N[C@@H](CS(=O)(=O)O)C(N)=O)C(C)(C)CCC1 [compound II-1f, N-(13-cis-retinoyl)-L-cysteic acid amide]	above 100 mg/kg body weight	did not produce mortality	53.2	49.8	45.1	45.8	15.4	47.4	37.3	16.1	40.1	27.2	17.7	31.1 ± 0.96 × 10^3	36.0 ± 1.28 × 10^3	41.8 ± 1.46 × 10^3	26.6 ± 1.83 × 10^3	28.5 ± 2.13 × 10^3	31.2 ± 2.42 × 10^3	~15	cell growth inhibition reached on increase of the concentration, in (B) [2]: ~46%
CCOC(=O)[C@H](CCS(=O)(=O)O)NC(=O)\C=C(C)/C=C/C=C(C)/C=C/C1=C(C)CCCC1(C)C [compound II-3b, N-(13-cis-retinoyl)-L-homocysteic acid ethyl ester]	above 100 mg/kg body weight	did not produce mortality	62.1	55.4	47.8	44.4	28.9	53.6	35.7	27.8	46	25.3	27.8	30.8 ± 1.60 × 10^3	35.6 ± 1.97 × 10^3	41.4 ± 2.15 × 10^3	21.4 ± 0.88 × 10^3	25.2 ± 1.27 × 10^3	29.5 ± 1.21 × 10^3	~29	inhibition at 0.1 µM [2, 6]: 60.5%; cell growth inhibition reached on increase of the concentration, in (B) [2]: ~44%
